For one experiment, the system named is Rat PAH model. The experiment in a line: Monocrotaline incurred pulmonary hypertension in rats, right ventricular systolic pressure. In kind it is in vivo. The conditions noted are these: 200 mg/Kg daily, 30th day, right cardiac catheterization, x ± s, model group 43.78 ± 2.14, normal group 21.08 ± 2.13. The method, then: Method: Rat PAH model was established, and normal saline was fed to contrast group with volume equivalent to that for injection. Drug for interference was fed 2 days after radiography. 200 mg/Kg per compound was fed on daily basis. Normal saline was used with equivalent volume for lavage to the contrast group and model group respectively. Right ventricular systolic pressure of rat was measured by means of Right cardiac catheterization at anesthesia state on the 30th day.

For the next experiment, the system named is Rat asthma model. The experiment can be described thus: Rat asthma model, nucleated (inflammatory) cell count in bronchi alveolar lavage fluid (BALF). In kind it is in vivo. The note with it: BALF total nucleated cells, model group 182.50 ± 24.52, blank group 85.50 ± 18.70. An excerpt:
Rat asthma model was established, and proceeded with blunt dissection of trachea following the last feeding of drug for trachea alveolar washing. Bronchi alveolar lavage fluid (BALF) was collected, and total number of nucleated cells were counted.

In experiment [1] the test system is Isolated tracheal strip (trachea smooth muscle). The experiment in a line: Isolated tracheal strip relaxation (diastolic rate) after acetylcholine chloride contraction. The note with it: read-out: Relaxation rate %. The method, then: Method: Isolated tracheal strip was fabricated, and was placed in the in-vitro tracheal experiment device; 100 μL acetylcholine chloride was added following tension adjustment and balancing to make the trachea extract, and the tension of trachea was increased. Once the tension was increased to the maximum value, and became balanced, corresponding trial drug was fed to inhibit extraction of the trachea; isometric muscle tension variation curve was recorded, and diastolic rate of smooth muscle was calculated. Diastolic rate=(tension after radiography−tension after dosing)/(tension after radiography)*100%.

The test system of the next experiment is tracheal smooth muscle. The conditions noted are these: guinea pig, cited from earlier work.
For the next experiment, the system named is isolated atria. The note with it: guinea pig; cited from earlier work.
[2] abbreviates: 0.75 mmol/L, isolated tracheal strip contracted with acetylcholine chloride.
Setting [3] is: 1.25 mmol/L, isolated tracheal strip contracted with acetylcholine chloride.

Like-named read-outs stand apart in the source and are kept apart here.

Turning to `CC1=CCC(C(C)(C)OC(=O)CN2CCOCC2)CC1` (stereo not drawn) [D], in the experiment with Rat PAH model, the RVSP was 32.04 ± 1.12^Δ mmHg. Further, the Inflammatory cell in the experiment on Rat asthma model is on record as 110.5 ± 16.21 × 10^8/L. Moreover, the inhibition at 750 µM in experiment [1] (setting [2]) was determined as 36.6 ± 13.8%. In addition, the inhibition at 1250 µM in experiment [1] (setting [3]) was 59.4 ± 14.7%.

Take `CC1CCC(C(C)(C)O)CC1` (stereo not drawn) [N]: the RVSP with Rat PAH model was 32.56 ± 2.82^Δ mmHg. For the same compound, the Inflammatory cell in the experiment with Rat asthma model is given as 140.00 ± 26.21^Δ × 10^8/L. Besides, the inhibition at 750 µM in experiment [1] (setting [2]) was found to be 27.2 ± 14.1%. Besides, in experiment [1] (setting [3]), the inhibition at 1250 µM stood at 41.3 ± 13.2%.

For the compound `CC1=CCC(C(C)(C)OC(=O)CN(C)CCO)CC1` (stereo not drawn) [C], the RVSP in the experiment with Rat PAH model is recorded as 22.33 ± 1.03^ΔΔ## mmHg. Further, the Inflammatory cell with Rat asthma model is listed as 77.50 ± 68.81 × 10^8/L. Besides, the inhibition at 750 µM in experiment [1] (setting [2]) came out at 50.2 ± 7.3%. For the same compound, the inhibition at 1250 µM in experiment [1] (setting [3]) was determined as 76.8 ± 7.7%.

For `CCCCCCCCCCCCCCCCCC(=O)OC(C)(C)C1CC=C(C)CC1` (stereo not drawn) [B], the RVSP in the experiment with Rat PAH model is given as 36.08 ± 2.01 mmHg. Moreover, in the experiment with Rat asthma model, the Inflammatory cell is listed as 134.50 ± 25.27^Δ × 10^8/L. The inhibition at 750 µM in experiment [1] (setting [2]) is 15.4 ± 9.83%. Moreover, the inhibition at 1250 µM in experiment [1] (setting [3]) amounted to 10.6 ± 13.8%.

With `CC1=CCC(C(C)(C)OC(=O)CN2CCC(O)CC2)CC1` (stereo not drawn) [J], the RVSP with Rat PAH model was 27.06 ± 1.17^Δ mmHg. The Inflammatory cell in the experiment on Rat asthma model is listed as 99.50 ± 21.23 × 10^8/L. Further, the inhibition at 750 µM in experiment [1] (setting [2]) was 35.2 ± 13.9%. Besides, the inhibition at 1250 µM in experiment [1] (setting [3]) amounted to 71.5 ± 15.4%.

With `CC1=CCC(C(C)(C)OC(=O)CN2CCC(=O)CC2)CC1` (stereo not drawn) [H], the RVSP in the experiment with Rat PAH model is given as 30.33 ± 2.03^Δ mmHg. The Inflammatory cell in the experiment with Rat asthma model is given as 123.00 ± 17.23 × 10^8/L. The inhibition at 750 µM in experiment [1] (setting [2]) is 20.9 ± 7.55%. In addition, the inhibition at 1250 µM in experiment [1] (setting [3]) was found to be 43.8 ± 10.2%.

In the case of `CC1=CCC(C(C)(C)O)CC1` (stereo not drawn) [α-T, α,α,4-Trimethylcyclohex-3-en-1-methanol, reference compound], the RVSP with Rat PAH model is 33.03 ± 2.22^Δ mmHg. Besides, in the experiment on Rat asthma model, the Inflammatory cell was 113.00 ± 21.27 × 10^8/L. Also, the inhibition at 750 µM in experiment [1] (setting [2]) was determined as 28.4 ± 16.1%. In experiment [1] (setting [3]), the inhibition at 1250 µM amounted to 38.4 ± 13.6%. Also, in the experiment on tracheal smooth muscle, the “cAMP content in the tracheal smooth muscle” value is “increase cAMP content”. Besides, the air passage relaxation entry in the experiment on tracheal smooth muscle (in vivo experiment and experiment in vitro) is on record as “available for air passage relaxation”. Further, the “effect on isolated atria” value with isolated atria is given as “inhibiting effect”.

Regarding `CCN(CC)CC(=O)OC(C)(C)C1CC=C(C)CC1` (stereo not drawn) [F], in the experiment with Rat PAH model, the RVSP is 23.35 ± 1.04^ΔΔ## mmHg. Besides, the Inflammatory cell in the experiment on Rat asthma model is 101.50 ± 14.68 × 10^8/L. Further, the inhibition at 750 µM in experiment [1] (setting [2]) came to 42.3 ± 10.4%. Besides, the inhibition at 1250 µM in experiment [1] (setting [3]) turned out to be 46.7 ± 3.56%.

`CC1=CCC(C(C)(C)OC(=O)CO[N+](=O)[O-])CC1` (stereo not drawn) [E] displayed an RVSP in the experiment with Rat PAH model of 35.53 ± 3.02 mmHg. Besides, in the experiment on Rat asthma model, the Inflammatory cell was 139.50 ± 20.71^Δ × 10^8/L. In addition, in experiment [1], the inhibition at 750 µM stood at 17.1 ± 6.98% and the inhibition at 1250 µM came to 10.8 ± 4.46%.

For `CC1=CCC(C(C)(C)OC(=O)CN(CCO)CCO)CC1` (stereo not drawn) [M], the RVSP with Rat PAH model is 33.36 ± 2.05^Δ mmHg. The Inflammatory cell with Rat asthma model is 97.50 ± 13.11 × 10^8/L. The inhibition at 750 µM in experiment [1] (setting [2]) was found to be 27.7 ± 2.08%. In addition, the inhibition at 1250 µM in experiment [1] (setting [3]) was 61 ± 5.07%.

For `Cn1c(=O)c2[nH]cnc2n(C)c1=O` [Aminophylline, reference compound], the inhibition at 750 µM in experiment [1] (setting [2]) came to 43.7 ± 10.2%. In addition, the inhibition at 1250 µM in experiment [1] (setting [3]) turned out to be 56.7 ± 9.26%.

As for `CC1=CCC(C(C)(C)OC(=O)CSCCO)CC1` (stereo not drawn) [G], the RVSP in the experiment on Rat PAH model is listed as 21.08 ± 1.31^ΔΔ# mmHg. Further, the Inflammatory cell in the experiment on Rat asthma model is 76.00 ± 18.15 × 10^8/L. The inhibition at 750 µM in experiment [1] (setting [2]) is 48.3 ± 9.36%. In addition, in experiment [1] (setting [3]), the inhibition at 1250 µM was 81.1 ± 10.2%.

Take `CC1=CCC(C(C)(C)OC(=O)CN2CCCCC2)CC1` (stereo not drawn) [L]: the RVSP in the experiment with Rat PAH model was 25.36 ± 1.17^ΔΔ# mmHg. Further, the Inflammatory cell in the experiment with Rat asthma model is reported as 110.50 ± 16.18 × 10^8/L. In addition, the inhibition at 750 µM in experiment [1] (setting [2]) was determined as 42.5 ± 6.14%. Moreover, in experiment [1] (setting [3]), the inhibition at 1250 µM is 52.2 ± 6.98%.

Regarding `CCCCCCCCCCCCCC(=O)OC(C)(C)C1CC=C(C)CC1` (stereo not drawn) [A], the RVSP with Rat PAH model is reported as 35.07 ± 2.81 mmHg. Besides, the Inflammatory cell in the experiment on Rat asthma model is listed as 139.50 ± 31.24^Δ × 10^8/L. Besides, the inhibition at 750 µM in experiment [1] (setting [2]) came out at 17.6 ± 2.89%. Also, the inhibition at 1250 µM in experiment [1] (setting [3]) was 16.6 ± 14.5%.

Source of the values: US11117866B2, “Terpineol and preparation method and application thereof” (priority 2016, dated 2021).
